One data set in a line: in vitro. The note with it: human, liver microsomes. Background: Liver microsomes are vesicles of endoplasmic reticulum, rich in cytochrome P450 enzymes.
Data set [1] in a line: in vivo. The note with it: beagle, dog, iv, 0.4 mg/kg.
Description: Half life in beagle dog at 0.4 mg/kg, iv cassette dosing by LC-MS/MS method
Data set [2] in a line: in vivo. The note with it: beagle, dog, iv, 0.4 mg/kg. The source holds these as a separate data set.
Description: Clearance in beagle dog at 0.4 mg/kg, iv administered as cassette dosing by LC-MS/MS method
The nature of data set [3]: in vivo. As to conditions: beagle, dog, iv, 0.4 mg/kg. This is another data set of the same source.
Description: Total AUC in beagle dog at 0.4 mg/kg, iv administered as cassette dosing by LC-MS/MS method
Data set [4] is described as follows: in vivo. As to conditions: beagle, dog, iv, 0.4 mg/kg. This is another data set of the same source.
Description: Volume of distribution at steady state in beagle dog at 0.4 mg/kg, iv cassette dosing by LC-MS/MS method

Description for in vitro: Stability in human liver microsomes assessed as half life

As a reminder, the half-life is the time in which the quantity being followed falls by half. The low end stands for rapid decline, the high end for slow decline. In turn, `O=C(/C=C/c1cc(Cl)ccc1-n1cnnn1)N[C@@H](Cc1ccccc1)C(=O)Nc1ccc(-n2cnnn2)cc1` yielded a half-life in “in vitro” of over 1.67 h.

For the molecule `COC(=O)Nc1cccc(NC(=O)[C@H](Cc2ccccc2)NC(=O)/C=C/c2cc(Cl)ccc2-n2cnnn2)c1`, in the data set “in vitro”, the half-life was over 1.67 h.

In the case of `O=C(/C=C/c1cc(Cl)ccc1-n1cnnn1)N[C@@H](Cc1ccccc1)C(=O)Nc1ccc(-c2nc[nH]n2)cc1`, in “in vitro”, the half-life was over 1.67 h.

As a reminder, the clearance is the rate of elimination divided by the concentration. Lower therefore signals a low capacity for elimination. By AUC is commonly meant concentration integrated over time. A low value points to less exposure. Usually Vd stands for the apparent volume that relates the amount in the body to the concentration in plasma or blood. A lower Vd goes with little distribution into tissue. In the case of `O=C(/C=C/c1cc(Cl)ccc1-n1cnnn1)N[C@@H](Cc1ccccc1)C(=O)Nc1ccc(C(=O)O)cc1`, the half-life is 0.6 h in the data set “in vivo [1]” and over 2 h in the data set “in vitro”. In the data set “in vivo [2]”, this molecule returned a clearance of 16 mL/min/kg. In addition, in “in vivo [3]”, the AUC turned out to be 0.396 µM·h. This molecule also had a Vd in “in vivo [4]” of 0.5 L/kg.

The values are drawn from ChEMBL document CHEMBL3751839, “Novel phenylalanine derived diamides as Factor XIa inhibitors” (Bioorg Med Chem Lett, 2016).
